# In the supplement of paper PMC10307832:
# Assays:
# Experiment in all cases: relative viability (nuclei count vs DMSO), 5 days (fraction); higher = more cells survive
# Trametinib + Phenformin = compound: CC(=O)Nc1cccc(-n2c(=O)n(C3CC3)c(=O)c3c(Nc4ccc(I)cc4F)n(C)c(=O)c(C)c32)c1 [Trametinib] + N=C(N)NC(=N)NCCc1ccccc1 [Phenformin] (partner 250 µM)
# Summary of the method: (§1)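 Lung cancer cell lines in 1536-well plates got either a single drug or a fixed anchor-drug dose together with five library-drug doses (not always all listed) in √10 steps, by pin tool, on the day after seeding. Nuclei were counted after 5 days, and relative viability is the treated-to-vehicle ratio of nuclei counts. Values are medians of duplicate plates.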
# [1] = compound: CN1C=C(C2=CC=CC=C21)/C=C\3/C4=C(C=CC=N4)NC3=O + Cc1nc(NC(=O)N2CCC[C@H]2C(N)=O)sc1-c1ccnc(C(C)(C)C(F)(F)F)c1 [Alpelisib] (partner 2 µM)
# Summary of the method: as §1
# [2] = compound: CN1C=C(C2=CC=CC=C21)/C=C\3/C4=C(C=CC=N4)NC3=O + CC(=O)c1c(C)c2cnc(Nc3ccc(N4CCNCC4)cn3)nc2n(C2CCCC2)c1=O [Palbociclib] (partner 0.5 µM)
# Summary of the method: as §1
# Trametinib + Vorinostat = compound: CC(=O)Nc1cccc(-n2c(=O)n(C3CC3)c(=O)c3c(Nc4ccc(I)cc4F)n(C)c(=O)c(C)c32)c1 [Trametinib] + O=C(CCCCCCC(=O)Nc1ccccc1)NO [Vorinostat] (partner 1 µM)
# Summary of the method: as §1
Cell Line,relative viability (Trametinib + Phenformin; first compound 0.0025 µM),relative viability (Trametinib + Phenformin; first compound 0.007906 µM),relative viability (Trametinib + Phenformin; first compound 0.025 µM),relative viability (Trametinib + Phenformin; first compound 0.07906 µM),relative viability (Trametinib + Phenformin; first compound 0.25 µM),relative viability ([1]; first compound 0.02 µM),relative viability ([1]; first compound 0.06325 µM),relative viability ([1]; first compound 0.2 µM),relative viability ([1]; first compound 0.6325 µM),relative viability ([1]; first compound 2 µM),relative viability ([2]; first compound 0.02 µM),relative viability ([2]; first compound 0.06325 µM),relative viability ([2]; first compound 0.2 µM),relative viability ([2]; first compound 0.6325 µM),relative viability ([2]; first compound 2 µM),relative viability (Trametinib + Vorinostat; first compound 0.0025 µM),relative viability (Trametinib + Vorinostat; first compound 0.007906 µM),relative viability (Trametinib + Vorinostat; first compound 0.025 µM),relative viability (Trametinib + Vorinostat; first compound 0.07906 µM),relative viability (Trametinib + Vorinostat; first compound 0.25 µM)
NCI-H838,0.515,0.509,0.281,0.369,0.351,0.603,0.859,0.792,0.901,0.937,0.208,0.174,0.214,0.199,0.18,0.682,0.591,0.598,0.631,0.568
PC-14,0.568,0.531,0.322,0.212,0.102,0.99,1.03,1.19,0.906,1.04,0.539,0.536,0.55,0.617,0.545,0.781,0.599,0.535,0.438,0.0917
NCI-H358,0.201,0.189,0.146,0.124,0.121,0.824,0.776,0.752,0.833,0.791,0.147,0.152,0.123,0.13,0.138,0.367,0.27,0.266,0.205,0.154
NCI-H1915,0.38,0.306,0.249,0.304,0.141,1.03,1.1,1.08,1.18,1.04,0.489,0.511,0.533,0.598,0.721,0.558,0.575,0.466,0.368,0.289
201T,0.397,0.412,0.44,0.437,0.423,0.998,1.04,1.08,1,0.913,0.321,0.359,0.377,0.35,0.323,0.945,0.833,0.736,0.732,0.785
NCI-H1437,0.258,0.205,0.23,0.201,0.206,0.877,0.897,1.15,1.1,1.16,0.344,0.34,0.292,0.32,0.318,0.813,0.642,0.516,0.447,0.377
A-427,0.234,0.286,0.22,0.207,0.137,1.08,1.02,–,1.08,1.13,0.577,0.492,–,0.514,0.572,0.948,0.896,0.723,0.501,0.51
HCC-366,0.57,0.574,0.372,0.49,0.226,0.296,0.328,0.284,0.31,0.267,0.239,0.281,0.338,0.397,0.304,0.354,0.291,0.357,0.356,0.106
